Results published in ChEMBL document CHEMBL1201862, “PubChem BioAssay data set” (2004).
Active and inactive are the calls of the source.

Experiments:
[1] = target: T1, Mannose-6-phosphate isomerase (Homo sapiens, UniProt P34949); test: PMI enzyme inhibitors, confirmation, biochemical, fluorescence intensity (AID 1535)
T1 sequence (P34949 whole entry): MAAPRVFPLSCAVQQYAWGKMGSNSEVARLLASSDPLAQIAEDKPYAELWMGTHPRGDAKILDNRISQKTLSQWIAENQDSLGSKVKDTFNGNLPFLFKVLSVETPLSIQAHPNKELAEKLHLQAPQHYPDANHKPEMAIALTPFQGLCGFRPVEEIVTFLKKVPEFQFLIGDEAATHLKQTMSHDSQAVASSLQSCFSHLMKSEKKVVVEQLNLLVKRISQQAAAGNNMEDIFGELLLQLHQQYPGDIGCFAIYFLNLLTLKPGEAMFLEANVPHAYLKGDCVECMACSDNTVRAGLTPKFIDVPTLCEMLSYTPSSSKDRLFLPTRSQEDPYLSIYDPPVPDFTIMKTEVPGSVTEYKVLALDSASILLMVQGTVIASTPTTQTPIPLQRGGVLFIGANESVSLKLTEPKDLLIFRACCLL

Phosphomannomutase 2 = Phosphomannomutase 2 (Homo sapiens, UniProt O15305); test: Counter screen SAR assay for PMM2 inhibitors via a fluorescence intensity assay. [Related pubchem assays (depositor defined):AID1545, AID1574]
Chain of Phosphomannomutase 2 (O15305 whole entry): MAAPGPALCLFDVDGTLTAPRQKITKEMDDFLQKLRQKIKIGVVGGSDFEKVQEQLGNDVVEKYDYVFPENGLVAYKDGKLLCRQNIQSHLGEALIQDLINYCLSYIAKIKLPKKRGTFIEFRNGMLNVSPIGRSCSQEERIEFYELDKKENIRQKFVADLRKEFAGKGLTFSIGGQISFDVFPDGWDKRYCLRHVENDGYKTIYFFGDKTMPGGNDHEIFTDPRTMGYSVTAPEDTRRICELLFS

[2] = target: Phosphoethanolamine/phosphocholine phosphatase (Homo sapiens, UniProt Q8TCT1); test: SAR assay for compounds that inhibit PHOSPHO1. [Related pubchem assays (depositor defined):AID1545, AID1565, AID1574]
Chain of Phosphoethanolamine/phosphocholine phosphatase (Q8TCT1 whole entry): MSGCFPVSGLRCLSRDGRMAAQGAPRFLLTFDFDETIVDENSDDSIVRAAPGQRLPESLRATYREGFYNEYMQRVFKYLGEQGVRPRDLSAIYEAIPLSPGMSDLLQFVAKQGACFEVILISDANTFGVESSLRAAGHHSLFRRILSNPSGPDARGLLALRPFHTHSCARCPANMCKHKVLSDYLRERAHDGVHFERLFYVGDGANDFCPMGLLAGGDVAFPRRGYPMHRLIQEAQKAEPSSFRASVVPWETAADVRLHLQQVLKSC

Bcl-2-like protein 10 = Bcl-2-like protein 10 (Homo sapiens, UniProt Q9HD36); test: displacers of TR3 peptide from Bcl-B, primary screen, selectivity assay for Bfl-1 inhibitor project, biochemical, fluorescence polarization, FITC-TR3 peptide (AID 748);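 also: fluorescence polarization from a fluorescein-labelled TR3 peptide binding purified Bcl-B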
Chain of Bcl-2-like protein 10 (Q9HD36 whole entry): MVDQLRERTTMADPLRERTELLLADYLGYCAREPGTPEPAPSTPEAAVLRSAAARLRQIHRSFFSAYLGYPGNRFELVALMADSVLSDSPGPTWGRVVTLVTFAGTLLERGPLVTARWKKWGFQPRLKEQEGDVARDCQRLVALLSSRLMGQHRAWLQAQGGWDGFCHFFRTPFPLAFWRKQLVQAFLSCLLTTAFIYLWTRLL

[3] = target: G-protein coupled receptor 55 (Homo sapiens, UniProt Q9Y2T6); test: GPR55 agonists via beta-arrestin recruitment, primary screen, imaging, U2OS cells, beta-arrestin-GFP redistribution (AID 1961); format: functional
Chain of G-protein coupled receptor 55 (Q9Y2T6 whole entry): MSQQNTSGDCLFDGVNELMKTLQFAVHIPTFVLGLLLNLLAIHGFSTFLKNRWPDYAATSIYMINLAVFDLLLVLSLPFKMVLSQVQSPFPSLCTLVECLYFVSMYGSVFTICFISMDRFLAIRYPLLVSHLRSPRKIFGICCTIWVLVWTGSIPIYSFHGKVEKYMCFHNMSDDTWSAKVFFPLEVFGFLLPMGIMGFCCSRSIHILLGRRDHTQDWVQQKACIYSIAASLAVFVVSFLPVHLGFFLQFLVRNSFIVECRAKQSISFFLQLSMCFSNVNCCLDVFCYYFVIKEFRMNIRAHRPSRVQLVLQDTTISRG

[4] = target: Kappa-type opioid receptor (Homo sapiens, UniProt P41145); test: SAR analysis of small molecule agonists of the kappa opioid receptor via a luminescent beta-arrestin assay - Set 2. [Related pubchem assays (depositor defined):AID1777, AID1785, AID1786, AID1966, AID2133, AID2136, AID2284, AID449737]; format: functional
Chain of Kappa-type opioid receptor (P41145 whole entry): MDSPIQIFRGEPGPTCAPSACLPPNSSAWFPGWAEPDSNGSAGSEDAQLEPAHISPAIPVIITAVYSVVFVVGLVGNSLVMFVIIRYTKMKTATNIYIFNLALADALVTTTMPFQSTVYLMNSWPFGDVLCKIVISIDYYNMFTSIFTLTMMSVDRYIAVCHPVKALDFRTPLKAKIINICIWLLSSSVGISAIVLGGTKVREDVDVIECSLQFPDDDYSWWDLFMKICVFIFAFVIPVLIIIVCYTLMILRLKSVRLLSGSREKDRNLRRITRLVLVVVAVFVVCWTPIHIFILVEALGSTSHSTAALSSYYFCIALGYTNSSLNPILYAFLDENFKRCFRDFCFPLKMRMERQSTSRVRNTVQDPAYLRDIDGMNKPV

[5] = test system: Streptococcus sp. 'group A'; test: growth inhibition of control SK(-) GAS strain, dose response, counter-screen for streptokinase expression inhibitor project, luminescence, kanamycin, BacTiterGlo, confirmation (AID 1900); format: functional, organism-based
Streptococcus [6] = test: Luminescence Microorganism-Based Dose Response Follow up to Identify Compounds Cytotoxic to Streptococcus. [Related pubchem assays: 1677 (Project Summary), 1915, 1914, 1902 (Retest at Dose), 1900 (Counter Screen), 1662 (Primary HTS)]; format: functional, organism-based
Streptokinase A = target: T2, Streptokinase A (Streptococcus pyogenes serotype M1, UniProt P10520); test: S. pyogenes streptokinase expression inhibitors, potency, dose response, plasminogen activation absorbance, OD405 (AID 1914); format: functional, Streptococcus pyogenes M1 GAS;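 also: secreted streptokinase activity via plasminogen activation per viability signal from cell pellet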
T2 sequence (P10520 whole entry): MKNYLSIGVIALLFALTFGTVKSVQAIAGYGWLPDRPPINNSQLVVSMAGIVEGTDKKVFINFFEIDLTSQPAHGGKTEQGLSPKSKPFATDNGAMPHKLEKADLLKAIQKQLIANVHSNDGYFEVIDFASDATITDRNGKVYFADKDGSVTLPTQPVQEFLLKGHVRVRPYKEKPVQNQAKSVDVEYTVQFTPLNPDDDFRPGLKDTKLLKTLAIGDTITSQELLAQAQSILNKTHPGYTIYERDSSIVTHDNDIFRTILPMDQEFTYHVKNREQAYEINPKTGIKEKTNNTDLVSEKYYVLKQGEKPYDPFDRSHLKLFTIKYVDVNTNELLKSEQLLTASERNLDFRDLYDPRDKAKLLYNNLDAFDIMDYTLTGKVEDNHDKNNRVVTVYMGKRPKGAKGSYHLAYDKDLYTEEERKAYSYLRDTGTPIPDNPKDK

Streptococcus [7] = test: Group A Streptococcus viability loss, dose response, counter-screen for streptokinase expression inhibitor project, luminescence, BacTiterGlo (AID 1915); format: functional, organism-based;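 also: potency for reduction of bacterial viability or growth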
Staphylococcus aureus = test: Inhibitors of Bacterial Quorum Sensing Structure Activity Relationship (SAR) Analysis: Dose Response Assay. [Related pubchem assays: 700, 527 ]; format: functional, organism-based
Cytochrome P450 2C9 = Cytochrome P450 2C9 (Homo sapiens, UniProt P11712); conditions: Potency
Chain of Cytochrome P450 2C9 (P11712 whole entry): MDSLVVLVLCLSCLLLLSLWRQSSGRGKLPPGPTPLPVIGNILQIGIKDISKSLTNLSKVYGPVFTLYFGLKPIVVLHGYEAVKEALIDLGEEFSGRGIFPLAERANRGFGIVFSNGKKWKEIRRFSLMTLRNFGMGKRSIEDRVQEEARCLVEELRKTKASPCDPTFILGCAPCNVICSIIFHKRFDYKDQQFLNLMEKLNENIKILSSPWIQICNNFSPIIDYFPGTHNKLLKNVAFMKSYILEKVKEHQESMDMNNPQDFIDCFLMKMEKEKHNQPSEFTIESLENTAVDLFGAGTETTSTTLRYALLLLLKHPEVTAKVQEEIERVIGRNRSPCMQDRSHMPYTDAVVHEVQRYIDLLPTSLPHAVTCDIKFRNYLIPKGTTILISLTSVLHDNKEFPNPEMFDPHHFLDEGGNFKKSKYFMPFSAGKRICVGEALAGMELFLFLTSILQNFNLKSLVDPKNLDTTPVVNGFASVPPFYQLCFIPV

[8] = cytotoxicity in HPDE-C7 cells, cell-based, fluorescence, HTS (AID 430); format: functional; conditions: Homo sapiens
[9] = cytotoxicity in KRAS-transformed pancreatic duct cells, primary screen, cell-based, fluorescence, HTS (AID 431); format: functional; conditions: Homo sapiens;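 also: cell line used: HPDE-C7K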
[10] = target: Intestinal-type alkaline phosphatase (Mus musculus, UniProt P24822); test: PubChem AID 488874; format: functional
Chain of Intestinal-type alkaline phosphatase (Mus musculus, UniProt P24822) (P24822 whole entry): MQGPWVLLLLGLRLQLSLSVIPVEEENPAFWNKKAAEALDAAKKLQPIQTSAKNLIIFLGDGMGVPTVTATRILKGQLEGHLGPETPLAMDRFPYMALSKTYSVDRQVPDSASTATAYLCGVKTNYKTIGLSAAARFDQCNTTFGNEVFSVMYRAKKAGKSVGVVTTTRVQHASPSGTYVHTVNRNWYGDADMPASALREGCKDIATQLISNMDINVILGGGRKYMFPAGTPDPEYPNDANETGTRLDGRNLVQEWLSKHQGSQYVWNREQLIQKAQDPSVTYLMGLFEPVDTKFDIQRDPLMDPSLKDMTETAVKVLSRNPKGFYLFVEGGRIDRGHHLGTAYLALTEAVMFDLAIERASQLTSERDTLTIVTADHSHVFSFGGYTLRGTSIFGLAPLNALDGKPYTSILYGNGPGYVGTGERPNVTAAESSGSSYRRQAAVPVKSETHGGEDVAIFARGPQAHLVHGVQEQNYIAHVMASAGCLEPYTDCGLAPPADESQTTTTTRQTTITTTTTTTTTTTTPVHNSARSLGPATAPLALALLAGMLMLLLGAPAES

[11] = target: T3, Intestinal-type alkaline phosphatase (Homo sapiens, UniProt P09923); test: human intestinal alkaline phosphatase activators, dose response, biochemical, luminescence, uHTS hits (AID 463120); format: functional
T3 sequence (P09923 whole entry): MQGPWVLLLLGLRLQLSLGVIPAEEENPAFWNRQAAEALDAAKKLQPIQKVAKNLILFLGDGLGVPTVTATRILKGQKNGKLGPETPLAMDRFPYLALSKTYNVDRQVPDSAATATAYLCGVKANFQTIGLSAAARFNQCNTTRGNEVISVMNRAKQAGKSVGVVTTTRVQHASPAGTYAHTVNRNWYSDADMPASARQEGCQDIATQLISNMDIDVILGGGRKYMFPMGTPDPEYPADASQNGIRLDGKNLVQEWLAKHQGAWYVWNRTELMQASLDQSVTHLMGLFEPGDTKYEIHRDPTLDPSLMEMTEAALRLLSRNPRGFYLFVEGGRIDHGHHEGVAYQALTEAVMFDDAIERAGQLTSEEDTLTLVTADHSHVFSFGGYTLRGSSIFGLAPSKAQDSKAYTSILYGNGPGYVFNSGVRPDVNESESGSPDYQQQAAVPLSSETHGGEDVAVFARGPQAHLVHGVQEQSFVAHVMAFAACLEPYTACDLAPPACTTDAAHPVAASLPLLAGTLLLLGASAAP

[12] = target: T3, Intestinal-type alkaline phosphatase; test: human IAP activators, dose response, biochemical, luminescent, uHTS hits, set 2 (AID 488817); format: functional;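 also: potency of activators that raise enzyme activity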
[13] = target: T4, Alkaline phosphatase, tissue-nonspecific isozyme (Homo sapiens, UniProt P05186); test: TNAP enzyme activators, dose response, selectivity assay for human IAP activator project, biochemical, TNAP isozyme, human IAP uHTS hits (AID 488886); format: functional;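 also: potency of compounds raising TNAP activity as a selectivity check on IAP activators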
T4 sequence (P05186 whole entry): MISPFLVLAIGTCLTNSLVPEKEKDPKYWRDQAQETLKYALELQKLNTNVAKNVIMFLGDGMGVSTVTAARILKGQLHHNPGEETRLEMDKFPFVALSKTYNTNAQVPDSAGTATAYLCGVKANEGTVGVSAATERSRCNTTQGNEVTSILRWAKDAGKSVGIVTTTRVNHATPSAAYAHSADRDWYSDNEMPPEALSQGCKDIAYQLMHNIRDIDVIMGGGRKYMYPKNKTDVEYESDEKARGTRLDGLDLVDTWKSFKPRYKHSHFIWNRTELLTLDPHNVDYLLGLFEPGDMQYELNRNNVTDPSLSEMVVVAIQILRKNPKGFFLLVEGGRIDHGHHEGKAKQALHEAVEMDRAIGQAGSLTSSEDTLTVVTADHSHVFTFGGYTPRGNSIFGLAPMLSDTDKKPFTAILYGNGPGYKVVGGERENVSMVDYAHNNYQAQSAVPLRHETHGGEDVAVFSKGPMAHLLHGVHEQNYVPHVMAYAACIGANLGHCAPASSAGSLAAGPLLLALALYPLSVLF

With `O=C1c2ccccc2C(=O)c2c1ccc1c(=O)n(-c3ccc(Cl)cc3)sc21` the IC50 [1] was > 50 µM (inactive), the IC50 (Phosphomannomutase 2) was > 100 µM (inactive) and the IC50 [2] was 0.82 µM (active).
For `c1cc2c3c(cccc3c1)NC1(CCCCC1)N2`, the IC50 (Bcl-2-like protein 10) was 60.5 µM (inactive).
In the case of `NC(=S)N/N=C/c1c[nH]c2ccc(OCc3ccccc3)cc12`, the EC50 [3] is reported as 0.874 µM (active).
With `O=C(CN(Cc1cccs1)C(=O)c1cccnc1)NC1CCCCC1` the EC50 [4] was > 20 µM (inactive).
In the case of `FC(F)(F)c1cccc(-c2cc3ccccc3nc2N2CCCC2)c1`, the EC50 [5] is reported as 6.96 µM (active), the EC50 (Streptococcus [6]) is reported as > 500 µM (not active) and the EC50 (Streptokinase A) is reported as 9.12 µM (active). The EC50 (Streptococcus [7]) was > 150 µM (not active).
In the case of `O=C(NCC(c1cccnc1)N1CCN(c2ccccc2)CC1)c1cccs1` (stereo not drawn), the IC50 (Staphylococcus aureus) is reported as 1.05 µM (active).
In the case of `CC(C)C[C@@H](CC(=O)N[C@@H](CCCN)CC(=O)N[C@@H]1CCCC[C@H]1C(=O)N[C@H](CC(=O)N[C@@H](CCC(=O)O)CC(=O)O)CC(C)C)NC(=O)[C@@H]1CNCC[C@H]1N`, the AC50 (Cytochrome P450 2C9) is reported as 39.8 µM (inconclusive).
In the case of `O=c1cc(-c2ccccc2)[nH]n1-c1nc2ccccc2[nH]1`, the EC50 [8] is reported as 2.73 µM (active), the EC50 [9] is reported as 2.21 µM (active) and the IC50 [10] is reported as 36.8 µM (active). For the same compound, the EC50 [11] was 11.5 µM (active), the EC50 [12] was 14.8 µM (active) and the EC50 [13] was 17.1 µM (active).
